# PubChem BioAssay (NCI)
#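 Following 48 hours of exposure in 96-well plates, responses at five concentrations were used to interpolate endpoints linearly. At the TGI there is no net growth.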
# System: A549 NSCLC
# Assay: NCI anticancer screen, dose series, 48 h
row,Structure (SMILES),TGI [µM]
1,O=C(CN(c1ccccc1)c1ccccc1)n1nnc2ccccc21,> 100
2,CSc1sc2ccccc2[s+]1,> 100
3,COc1cc(OC)c(C2c3cc4c(cc3OC(N3CCCC3)C2C)OCO4)c(OC)c1 (configuration not stated),87.9
4,Cc1ccc(S(=O)(=O)C(C#N)c2nc3ccccc3nc2-n2ccnc2)cc1 (configuration not stated),> 100
5,C=C1CN2CC(=C)CN(C1)CS(=O)(=O)N1CC(=C)CN(CC(=C)C1)S(=O)(=O)N1CC(=C)CN(CC(=C)C1)S(=O)(=O)C2,> 100
6,C=C(Cl)C(C)(Cl)CCC(Br)C(C)(C)Cl (configuration not stated),> 100
7,COC(=O)C1CCCN1C(=O)C(Cc1cn(S(=O)(=O)c2ccc(C)cc2)cn1)NC(=O)OC(C)(C)C (configuration not stated),> 100
8,Nc1ccc(S2(c3ccc(N)cc3)C=C(c3ccccc3)C(c3ccccc3)=C2)cc1,> 100
9,O=C1C(=Cc2ccccc2O)N=C(c2ccccc2)N1n1c(-c2ccccc2)nc2ccccc2c1=O,> 100
10,CC(=O)O[C@]12CCCCCC1C1(O)C(O)CCCC[C@H]12 (some centres not stated),> 100
11,COC(=O)C1=C(C)NC(C)=C(C(=O)OC)C1c1nc2sccn2c1[N+](=O)[O-],> 100
12,O=c1c(C(c2ccc(Cl)cc2)c2c(O)c3ccccc3n(-c3ccccc3)c2=O)c(O)c2ccccc2n1-c1ccccc1,> 100
13,CCNC(=O)Nc1cccc(NC(=O)NCC)n1,> 100

# System: NCI/ADR-RES ovarian
# Assay: NCI anticancer screen, dose series, 48 h
row,Structure (SMILES),TGI [µM]
1,COc1ccc(C2OC(c3ccncc3)=NN2C)cc1OC (configuration not stated),> 100
2,COC1C=COC2(C)Oc3c(C)c(O)c4c(O)c(c(C5SCCS5)c(O)c4c3C2=O)NC(=O)C(C)=C/C=C\C(C)C2OC(C)(C)OC(C2C)C(C)C(OC(C)=O)C1C (configuration not stated),> 100
3,COc1ccc(C2COc3cc(O)c(O)cc3C2)cc1 (configuration not stated),27.1
4,CCCCN=C(c1ccccc1)N1CCOCC1,> 100
5,CSc1ncnc2c1ncn2CCC#N,> 100
6,CC1CCCC(CC(=O)O)(CC(=O)O)C1 (configuration not stated),> 100
7,CC(C)(Cl)C(Br)CCC(=CCCl)CBr (mixture of isomers),24.3
8,O=NN(CCCl)C(=O)NC1CCC(O)CC1 (configuration not stated),69.4
9,Nc1[nH]nc2nc3ccc(C(F)(F)F)cc3nc12,> 100
10,CCC(=O)ONC(=O)Cn1ccc([N+](=O)[O-])n1,> 100
11,Cc1ccc(O)c(-c2cscn2)c1,> 100
12,COc1cc(OC)c(C2c3cc4c(cc3OC(N3CCCC3)C2C)OCO4)c(OC)c1 (configuration not stated),67
13,C=C1CN2CC(=C)CN(C1)CS(=O)(=O)N1CC(=C)CN(CC(=C)C1)S(=O)(=O)N1CC(=C)CN(CC(=C)C1)S(=O)(=O)C2,> 100
14,C=C(Cl)C(C)(Cl)CCC(Br)C(C)(C)Cl (configuration not stated),92.1
15,Nc1ccc(S2(c3ccc(N)cc3)C=C(c3ccccc3)C(c3ccccc3)=C2)cc1,> 100
16,COC(=O)C1=C(C)NC(C)=C(C(=O)OC)C1c1nc2sccn2c1[N+](=O)[O-],> 100

# System: NCI-H226 lung
# Assay: NCI anticancer screen, dose series, 48 h
row,Structure (SMILES),TGI [µM]
1,COc1ccc(C2OC(c3ccncc3)=NN2C)cc1OC (configuration not stated),> 100
2,COc1c(C(C)C)cc2c3c1OC(=O)[C@@]31CCCC(C)(C)C1CC2 (some centres not stated),44.4
3,COC1C=COC2(C)Oc3c(C)c(O)c4c(O)c(c(C5SCCS5)c(O)c4c3C2=O)NC(=O)C(C)=C/C=C\C(C)C2OC(C)(C)OC(C2C)C(C)C(OC(C)=O)C1C (configuration not stated),22.1
4,OCc1ccc(C2CC(c3ccco3)=NN2c2ccccc2)o1 (configuration not stated),> 100
5,COc1ccc(C2COc3cc(O)c(O)cc3C2)cc1 (configuration not stated),213
6,CCCCN=C(c1ccccc1)N1CCOCC1,> 100
7,CSc1ncnc2c1ncn2CCC#N,> 100
8,CCOC(=O)c1ccc(C)c(N=NN(C)C)c1,> 100
9,CC(C)CC(O)P(=O)(O)O (configuration not stated),> 100
10,CC1CCCC(CC(=O)O)(CC(=O)O)C1 (configuration not stated),> 100
11,COc1cc2c3c(c1OC)C1(C=CC(=O)C=C1)C[C@H]3N(C)CC2,> 100
12,CC(C)(Cl)C(Br)CCC(=CCCl)CBr (mixture of isomers),45
13,O=NN(CCCl)C(=O)NC1CCC(O)CC1 (configuration not stated),> 100
14,CCC(=O)ONC(=O)Cn1ccc([N+](=O)[O-])n1,> 100
15,O=C(CN(c1ccccc1)c1ccccc1)n1nnc2ccccc21,> 100
16,CSc1sc2ccccc2[s+]1,> 100
17,Cc1ccc(S(=O)(=O)C(C#N)c2nc3ccccc3nc2-n2ccnc2)cc1 (configuration not stated),> 100
18,C=C1CN2CC(=C)CN(C1)CS(=O)(=O)N1CC(=C)CN(CC(=C)C1)S(=O)(=O)N1CC(=C)CN(CC(=C)C1)S(=O)(=O)C2,71.5
19,C=C(Cl)C(C)(Cl)CCC(Br)C(C)(C)Cl (configuration not stated),> 100
20,COC(=O)C1CCCN1C(=O)C(Cc1cn(S(=O)(=O)c2ccc(C)cc2)cn1)NC(=O)OC(C)(C)C (configuration not stated),> 100
21,Nc1ccc(S2(c3ccc(N)cc3)C=C(c3ccccc3)C(c3ccccc3)=C2)cc1,> 63.3
22,O=C1C(=Cc2ccccc2O)N=C(c2ccccc2)N1n1c(-c2ccccc2)nc2ccccc2c1=O,79
23,CC(=O)O[C@]12CCCCCC1C1(O)C(O)CCCC[C@H]12 (some centres not stated),> 100
24,COC(=O)C1=C(C)NC(C)=C(C(=O)OC)C1c1nc2sccn2c1[N+](=O)[O-],> 100
25,O=c1c(C(c2ccc(Cl)cc2)c2c(O)c3ccccc3n(-c3ccccc3)c2=O)c(O)c2ccccc2n1-c1ccccc1,> 100
26,CCNC(=O)Nc1cccc(NC(=O)NCC)n1,> 100

# System: HCT-116 colon
# Assay: NCI anticancer screen, dose series, 48 h
row,Structure (SMILES),TGI [µM]
1,COc1ccc(C2OC(c3ccncc3)=NN2C)cc1OC (configuration not stated),> 100
2,COc1c(C(C)C)cc2c3c1OC(=O)[C@@]31CCCC(C)(C)C1CC2 (some centres not stated),29.1
